Laboratory results: patent US11852634B2, “Use of AKT phosphorylation as a biomarker for prognosing neurodegenerative diseases and treating same” (Yeda Research and Development Co. Ltd., priority 2011, dated 2023)
Where no end group is shown, it is not given here.

System: healthy mice
Experiment: Repeated-dose safety in healthy mice
Type: in vivo
Conditions: dose four times higher than the effective dose, daily, for 28 days
Excerpt: Accordingly, the peptide of the invention is suitable for chronic use. In addition, the peptide of the invention was shown effective when administered intravenously (IV), intraperitoneally (IP) or in combination of these two modes of delivery.

Substance: LPPLPYP [SEQ ID NO: 1, LPPLPYP]
- Side effects: did not initiate any detectable side effect
